From the supplement of paper PMC10307832

How the values were obtained:
Experiment in all cases: relative viability (nuclei count vs DMSO), 5 days (fraction); higher = more cells survive
Tosedostat + Tozasertib = compound: CC(C)C[C@@H](C(=O)N[C@H](C(=O)OC1CCCC1)c1ccccc1)[C@H](O)C(=O)NO [Tosedostat] + Cc1cc(Nc2cc(N3CCN(C)CC3)nc(Sc3ccc(NC(=O)C4CC4)cc3)n2)n[nH]1 [Tozasertib] (partner 0.1 µM)
Outline: (§1)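 Cells from lung cancer lines were seeded into 1536-well plates and, one day later, dosed by pin tool. Treatments were either a single drug or a fixed dose of an anchor drug with five library-drug doses (not always all listed) in √10 steps. After 5 days, nuclei were stained in a one-step fixation (final 0.05% Triton X-100, 1% formaldehyde, 1 ug/ml Hoechst) and counted on 4× images, and relative viability is the treated-to-vehicle nuclei ratio, as the median of duplicate plates.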

[1] = compound: CC1=NN=C(O1)C2=NN=C(C=C2)N3CCC(CC3)OC4=C(C=CC(=C4)F)Cl + CC(=O)c1c(C)c2cnc(Nc3ccc(N4CCNCC4)cn3)nc2n(C2CCCC2)c1=O [Palbociclib] (partner 0.5 µM)
Outline: as §1

[2] = compound: CC1=NN=C(O1)C2=NN=C(C=C2)N3CCC(CC3)OC4=C(C=CC(=C4)F)Cl + CC1(C)CCC(c2ccc(Cl)cc2)=C(CN2CCN(c3ccc(C(=O)NS(=O)(=O)c4ccc(N[C@H](CCN5CCOCC5)CSc5ccccc5)c(S(=O)(=O)C(F)(F)F)c4)cc3)CC2)C1 [Navitoclax] (partner 0.5 µM)
Outline: as §1

[3] = compound: CC1=NN=C(O1)C2=NN=C(C=C2)N3CCC(CC3)OC4=C(C=CC(=C4)F)Cl + C[C@]1(O)C[C@@H](c2nc(-c3ccc4ccc(-c5ccccc5)nc4c3)c3c(N)nccn32)C1 [Linsitinib] (partner 1 µM)
Outline: as §1

Cell Line	relative viability (Tosedostat + Tozasertib; first compound 0.02 µM)	relative viability (Tosedostat + Tozasertib; first compound 0.06325 µM)	relative viability (Tosedostat + Tozasertib; first compound 0.2 µM)	relative viability (Tosedostat + Tozasertib; first compound 0.6325 µM)	relative viability (Tosedostat + Tozasertib; first compound 2 µM)	relative viability ([1]; first compound 0.253 µM)	relative viability ([1]; first compound 0.8 µM)	relative viability ([1]; first compound 2.53 µM)	relative viability ([1]; first compound 8 µM)	relative viability ([2]; first compound 0.253 µM)	relative viability ([2]; first compound 0.8 µM)	relative viability ([2]; first compound 2.53 µM)	relative viability ([2]; first compound 8 µM)	relative viability ([3]; first compound 0.253 µM)	relative viability ([3]; first compound 0.8 µM)	relative viability ([3]; first compound 2.53 µM)	relative viability ([3]; first compound 8 µM)
NCI-H838	0.273	0.262	0.305	0.283	0.255	0.192	0.24	0.222	0.196	0.959	0.954	1.05	0.979	0.919	0.872	0.93	0.856
SK-LU-1	0.356	0.282	0.275	0.285	0.225	0.428	0.334	0.33	0.47	0.765	0.957	0.706	0.531	1.03	0.852	1.02	0.589
H3255	0.575	0.717	0.643	0.534	0.656	0.296	0.305	0.309	0.321	0.494	0.422	0.524	0.39	0.697	0.719	0.718	0.716
SK-MES-1	1.01	0.822	0.95	0.801	0.61	0.28	0.355	0.341	0.352	0.995	1.04	1.03	0.929	0.848	0.8	0.828	0.815
NCI-H1651	0.726	0.645	0.637	0.678	0.554	0.337	0.387	0.331	0.346	0.809	0.783	0.782	0.717	0.857	0.873	0.807	0.801
LXF-289	0.198	0.167	0.169	0.122	0.0708	0.524	0.549	0.531	0.458	0.714	0.7	0.673	0.618	0.724	0.712	0.688	0.603
HCC-827	0.416	0.412	0.445	0.357	0.426	0.317	0.283	0.355	0.3	0.397	0.291	0.399	0.328	0.395	0.281	0.366	0.355
LK-2	0.17	0.208	0.165	0.162	0.162	0.739	0.818	0.772	0.614	0.873	0.928	0.808	0.915	0.603	0.592	0.627	0.49
